# Assay results published in US20250051319A1 (AUGUSTINE THERAPEUTICS, priority 2021, published 2025).
# Target: catalytic domain 2 (CD2) of HDAC6 (Homo sapiens (Human), UniProt Q9UBN7)
# Experiment: Cellular target engagement assay - NanoBRET
# Assay type: cell-based
# Settings: NanoLuc-HDAC6(CD2) in HEK293T cells, 2 hours, read-out: IC50 (HDAC6(CD2) interaction)
# Protocol: NanoBRET target engagement was performed against the catalytic domain 2 (CD2) of HDAC6, with minor modifications of kit manufacturer protocol (Promega). Expression of exogenous NanoLuc-HDAC6(CD2) fusion and in HEK293T was achieved following transient transfection with FuGENE HD Transfection Reagent (Promega). The intracellular target engagement assay on HDAC6(CD2) was performed in a 384-well plate format with 8,000 cells per well and a tracer concentration of 0.125 μM or 0.600 μM for HDAC6(CD2). Compounds (dissolved in 100% DMSO) or DMSO (vehicle) were added either manually by diluting them in culture medium at 8× final assay concentration and then adding 5 μL to assay plate or in an automated way by adding […] compound to 5 μL OptiMEM without phenol red (Gibco) using the Echo650 (Labcyte). Tracer solution was added to the cells before seeding 35 μL cell/tracer mixture in the assay plate. The final reaction volume was 40 μL, final DMSO concentration was 1.4% (manual compound addition) or 1.25% (automated compound addition). Assay plates were incubated at 37° C. in a humidified atmosphere containing 5% C02 for 2 hours. The NanoBRET Nano-glo Substrate/Inhibitor was prepared by diluting NanoBRET Nano-Glo Substrate (1:332) and Extracellular Inhibitor (1:1000) in assay medium (Promega). […] BRET ratios were calculated from acceptor/donor signal ratio (mBRET=acceptor/donor*1000) and normalized for each plate. Percentage inhibition was calculated by setting the mBRET obtained with cells without tracer to 100%, while the mBRET obtained with uninhibited cells with tracer was set to 0%. IC50-values were calculated from the percentage inhibition with the log(inhibitor) vs. response—Variable slope (four parameters) nonlinear regression in GraphPad Prism software.
# catalytic domain 2 (CD2) of HDAC6, sequence (Q9UBN7 482-800): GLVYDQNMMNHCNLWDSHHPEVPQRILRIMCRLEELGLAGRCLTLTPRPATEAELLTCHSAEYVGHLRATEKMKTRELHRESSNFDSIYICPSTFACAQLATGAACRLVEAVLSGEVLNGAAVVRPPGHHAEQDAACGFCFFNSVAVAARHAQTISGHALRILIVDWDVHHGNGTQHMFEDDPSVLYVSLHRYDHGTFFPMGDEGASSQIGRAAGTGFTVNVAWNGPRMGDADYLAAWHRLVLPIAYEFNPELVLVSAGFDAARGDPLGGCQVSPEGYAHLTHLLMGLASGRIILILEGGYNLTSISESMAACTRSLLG
row,SMILES,IC50
1,"Cn1ncc2c(SCC(=O)c3ccc(C4CCN(S(N)(=O)=O)C4)s3)ncnc21 (centres unmarked) [Compound 96, 3-(5-(2-((1-methyl-1H-pyrazolo[3,4-d]pyrimidin-4-yl)thio)acetyl)thiophen-2-yl)pyrrolidine-1-sulfonamide]",500 to 1000 nM
2,"C[C@H](NC(=O)CO)c1ccc(C(=O)CSc2nc(C(F)(F)F)nc3c2cnn3C)s1 [Example 130, (S)-2-hydroxy-N-(1-(5-(2-((1-methyl-6-(trifluoromethyl)-1H-pyrazolo[3,4-d]pyrimidin-4-yl)thio)acetyl)thiophen-2-yl)ethyl)acetamide]",100 to 500 nM
3,"COc1ccc2nc(C)nc(SCC(=O)c3ccc(CN4CCC(O)C4=O)s3)c2c1 (centres unmarked) [Example 141, 3-hydroxy-1-((5-(2-((6-methoxy-2-methylquinazolin-4-yl)thio)acetyl)thiophen-2-yl)methyl)pyrrolidin-2-one]",100 to 500 nM
4,"CC(C)(C)C(=O)NCc1ccc(C(=O)CSc2nc(C3CCC3)nc3ccccc23)s1 [Example 14, N-((5-(2-((2-cyclobutylquinazolin-4-yl)thio)acetyl)thiophen-2-yl)methyl)pivalamide]",100 to 500 nM
5,"O=C(CO)NCc1ccc(C(=O)CSc2nccn3cncc23)s1 [Example 181, 2-hydroxy-N-((5-(2-(imidazo[1,5-a]pyrazin-8-ylthio)acetyl)thiophen-2-yl)methyl)acetamide]",100 to 500 nM
6,"O=C(CO)NCc1ccc(C(=O)CSc2nc3c(C(F)(F)F)cccc3o2)s1 [Compound 196, 2-hydroxy-N-((5-(2-((4-(trifluoromethyl)benzo[d]oxazol-2-yl)thio)acetyl)thiophen-2-yl)methyl)acetamide]",1000 to 10000 nM
7,"Cn1ncc2c(SCC(=O)c3ncc(CNC(=O)C(C)(C)C)s3)ncnc21 [Example 27, N-((2-(2-((1-methyl-1H-pyrazolo[3,4-d]pyrimidin-4-yl)thio)acetyl)thiazol-5-yl)methyl)pivalamide]",100 to 500 nM
8,"CC(=O)NCCc1ccc(C(=O)CSc2nc3nc(C)ccc3o2)s1 [Compound 104, N-(2-(5-(2-((5-methyloxazolo[4,5-b]pyridin-2-yl)thio)acetyl)thiophen-2-yl)ethyl)acetamide]",100 to 500 nM
9,"COc1ccc2nc(C)nc(SCC(=O)c3ccc([C@H](C)NC(=O)CO)s3)c2c1 [Example 128, (S)-2-hydroxy-N-(1-(5-(2-((6-methoxy-2-methylquinazolin-4-yl)thio)acetyl)thiophen-2-yl)ethyl)acetamide]",100 to 500 nM
10,"Cc1ccc2oc(SCC(=O)c3ccc(CNC(=O)CO)s3)nc2c1 [Example 170, 2-hydroxy-N-((5-(2-((5-methylbenzo[d]oxazol-2-yl)thio)acetyl)thiophen-2-yl)methyl)acetamide]",1000 to 10000 nM
11,"O=C(CO)NCc1ccc(C(=O)CSc2nccn3ccnc23)s1 [Example 176, 2-hydroxy-N-((5-(2-(imidazo[1,2-a]pyrazin-8-ylthio)acetyl)thiophen-2-yl)methyl)acetamide]",1000 to 10000 nM
12,"COc1cccc2oc(SCC(=O)c3ccc(CNC(=O)CO)s3)nc12 [Example 168, 2-hydroxy-N-((5-(2-((4-methoxybenzo[d]oxazol-2-yl)thio)acetyl)thiophen-2-yl)methyl)acetamide]",1000 to 10000 nM
13,"CC(=O)NCCc1ccc(C(=O)CSc2nc(C3CC3)nc3ccccc23)s1 [Example 101, N-(2-(5-(2-((2-cyclopropylquinazolin-4-yl)thio)acetyl)thiophen-2-yl)ethyl)acetamide]",100 to 500 nM
14,"COc1ccc2c(SCC(=O)c3ccc(CNC(=O)CO)s3)nc(C)nc2c1 [Compound 70, 2-hydroxy-N-((5-(2-((7-methoxy-2-methylquinazolin-4-yl)thio)acetyl)thiophen-2-yl)methyl)acetamide]",100 to 500 nM
15,"CCc1nc(SCC(=O)c2ccc(CNC(=O)C(C)(C)C)s2)c2ccccc2n1 [Example 13, N-((5-(2-((2-ethylquinazolin-4-yl)thio)acetyl)thiophen-2-yl)methyl)pivalamide]",100 to 500 nM

# Further lines, results first:
row,IC50,SMILES
1,≤ 100 nM,"O=C(CSc1nc2nc(C(F)(F)F)ccc2o1)c1ccc(CNC(=O)C2(O)CC2)s1 [Compound 45, 1-hydroxy-N-((5-(2-((5-(trifluoromethyl)oxazolo[4,5-b]159yrrolid-2-yl)thio)acetyl)thiophen-2-yl)methyl)cyclopropane-1-carboxamide]"
2,100 to 500 nM,"COc1ccc2nc(C)nc(SCC(=O)c3ccc(CNC(=O)C4CCCO4)s3)c2c1 (centres unmarked) [Compound 171, N-((5-(2-((6-methoxy-2-methylquinazolin-4-yl)thio)acetyl)thiophen-2-yl)methyl)tetrahydrofuran-2-carboxamide]"
3,100 to 500 nM,"Cc1nc(SCC(=O)c2ccc(CNC(=O)C3CC3(F)F)s2)c2cccnc2n1 (centres unmarked) [Compound 110, 2,2-difluoro-N-((5-(2-((2-methylpyrido[2,3-d]pyrimidin-4-yl)thio)acetyl)thiophen-2-yl)methyl)cyclopropane-1-carboxamide]"
4,100 to 500 nM,"CNCC(=O)NCc1ccc(C(=O)CSc2nc(C)nc3ccc(OC)cc23)s1 [Compound 183, N-((5-(2-((6-methoxy-2-methylquinazolin-4-yl)thio)acetyl)thiophen-2-yl)methyl)-2-(methylamino)acetamide]"
5,≤ 100 nM,"COc1ccc2nc(C)nc(SCC(=O)c3ccc(CNC(=O)[C@H](C)O)s3)c2c1 [Compound 185, (S)-2-hydroxy-N-((5-(2-((6-methoxy-2-methylquinazolin-4-yl)thio)acetyl)thiophen-2-yl)methyl)propanamide]"
6,≤ 100 nM,"Cc1nc(SCC(=O)c2ccc(CNC(=O)CO)s2)c2ccccc2n1 [Compound 66, 2-hydroxy-N-((5-(2-((2-methylquinazolin-4-yl)thio)acetyl)thiophen-2-yl)methyl)acetamide]"
7,≤ 100 nM,"Cn1cc2c(SCC(=O)c3ccc(CNC(=O)C(C)(C)C)s3)nc(C(F)(F)F)nc2n1 [Example 22, N-((5-(2-((2-methyl-6-(trifluoromethyl)-2H-pyrazolo[3,4-d]pyrimidin-4-yl)thio)acetyl)thiophen-2-yl)methyl)pivalamide]"
8,≤ 100 nM,"Cc1nc(SCC(=O)c2ccc(CNC(=O)CO)s2)c2cc(N3CCCCC3)ccc2n1 [Compound 82, 2-hydroxy-N-((5-(2-((2-methyl-6-(piperidin-1-yl)quinazolin-4-yl)thio)acetyl)thiophen-2-yl)methyl)acetamide]"
9,≤ 100 nM,"Cc1nc(SCC(=O)c2ccc(CNC(=O)CO)s2)c2cc(OC3CC3)ccc2n1 [Compound 77, N-((5-(2-((6-cyclopropoxy-2-methylquinazolin-4-yl)thio)acetyl)thiophen-2-yl)methyl)-2-hydroxyacetamide]"
10,≤ 100 nM,"O=C(CSc1nc(C(F)(F)F)nc2ncccc12)c1ccc(CNS(=O)(=O)C2CC2)s1 [Compound 122, N-((5-(2-((2-(trifluoromethyl)pyrido[2,3-d]pyrimidin-4-yl)thio)acetyl)thiophen-2-yl)methyl)cyclopropanesulfonamide]"
11,≤ 100 nM,"Cc1nc(SCC(=O)c2ccc(CNC(=O)CO)s2)c2cc(N3CCC(F)(F)C3)ccc2n1 [Compound 84, N-((5-(2-((6-(3,3-difluoropyrrolidin-1-yl)-2-methylquinazolin-4-yl)thio)acetyl)thiophen-2-yl)methyl)-2-hydroxyacetamide]"
12,≤ 100 nM,"CCn1ncc2c(SCC(=O)c3ccc(CNC(=O)CO)s3)nc(C(F)(F)F)nc21 [Compound 136, N-((5-(2-((1-ethyl-6-(trifluoromethyl)-1H-pyrazolo[3,4-d]pyrimidin-4-yl)thio)acetyl)thiophen-2-yl)methyl)-2-hydroxyacetamide]"
13,≤ 100 nM,"Cn1cc2c(SCC(=O)c3ccc(CNC(=O)C4CC4)s3)nc(C(F)(F)F)nc2n1 [Example 41, N-((5-(2-((2-methyl-6-(trifluoromethyl)-2H-pyrazolo[3,4-d]pyrimidin-4-yl)thio)acetyl)thiophen-2-yl)methyl)cyclopropanecarboxamide]"
14,≤ 100 nM,"COc1ccc2nc(C(F)(F)F)nc(SCC(=O)c3ccc(CNC(=O)CO)s3)c2c1 [Compound 80, 2-hydroxy-N-((5-(2-((6-methoxy-2-(trifluoromethyl)quinazolin-4-yl)thio)acetyl)thiophen-2-yl)methyl)acetamide]"
15,≤ 100 nM,"Cc1nc(SCC(=O)c2ccc(CNC(=O)CO)s2)c2cc(C(F)(F)F)cc(N(C)C)c2n1 [Compound 150, N-((5-(2-((8-(dimethylamino)-2-methyl-6-(trifluoromethyl)quinazolin-4-yl)thio)acetyl)thiophen-2-yl)methyl)-2-hydroxyacetamide]"
16,≤ 100 nM,"CN(Cc1ccc(C(=O)CSc2nc(C(F)(F)F)nc3ncccc23)s1)C(=O)CO [Compound 131, 2-hydroxy-N-methyl-N-((5-(2-((2-(trifluoromethyl)pyrido[2,3-d]pyrimidin-4-yl)thio)acetyl)thiophen-2-yl)methyl)acetamide]"
17,≤ 100 nM,"Cc1nc(SCC(=O)c2ccc(CNC(=O)CO)s2)c2cc(N3CCOCC3)ccc2n1 [Compound 81, 2-hydroxy-N-((5-(2-((2-methyl-6-morpholinoquinazolin-4-yl)thio)acetyl)thiophen-2-yl)methyl)acetamide]"
